From publication PMC10467108, “Of Seven New K^+ Channel Inhibitor Peptides of Centruroides bonito, α-KTx 2.24 Has a Picomolar Affinity for Kv1.2” (Toxins, 2023)
Entries after “also recorded” stand apart in the source; their conditions may differ. Where two headings read alike, the source gives them in different places. Where a SMILES comes first, the peptide text is derived from it. Bridges are numbered along the chain shown (N, C = ends).

Columns and labels:
Format in all cases: cell-based
hKv1.2 = target: T1, hKv1.2 (Homo sapiens, UniProt P16389); assay: Whole-cell patch-clamp of Kv1.2 currents in transiently transfected CHO cells
T1 construct: GFP (C); host or cells: CHO cells, transient transfection (Lipofectamine 2000)
Description: (§1) Macroscopic Kv1.1 and Kv1.2 currents were measured in transiently transfected CHO cells. For Kv1.3 current recording, human T lymphocytes were activated by Phytohemagglutinin A (PHA) to increase Kv1.3 channel expression, and micro-pipettes were filled with Ca^2+-free solution to prevent KCa3.1 channel activation. K^+ currents were evoked by applying 15-ms-long depolarization pulses to +50 mV from a holding potential of −120 mV except for Kv1.2, as it has highly variable activation kinetics; therefore, 15–500 ms-long pulses were applied to maximize the open probability of Kv1.2 channel. CboK peptide toxins were dissolved in a freshly prepared extracellular solution and applied to the whole-cell patch-clamped cells using a micro perfusion system at 200 μL/min flow rate.
(§2) CHO cells were transiently transfected by using Lipofectamine 2000 kit (Invitrogen, Carlsbad, CA, USA), as per the manufacturer’s protocol with vector pCMV6-AC-GFP (cat# RG211000 and RC222200; OriGene Technologies, Rockville, MD, USA) encoding hKv1.1 (hKCNA1 gene) or hKv1.2 (hKCNA2 gene) ion channels. Cells were grown under standard conditions in an incubator at 37 °C and 5% CO2 for 24 h. GFP-positive transfected cells were identified by utilizing a Nikon TMS fluorescence microscope (Nikon, Tokyo, Japan) using bandpass filters of 455–495 nm and 515–555 nm for excitation and emission, respectively.
(§3) The patch-clamp technique was used for measuring whole-cell currents in voltage-clamped mode using standard protocols. Electrophysiological recordings were acquired by using Multiclamp 700B amplifier connected to a personnel computer with an Axon Digidata1440 digitizer (Molecular Devices, Sunnyvale, CA, USA). Pipettes were pulled from GC150F-15 borosilicate capillaries (Harvard Apparatus, Kent, UK) having 3−5 MΩ tip resistance in the bath solution. All current recordings were carried out at room temperature (20−25 °C) and only those currents were recorded and subjected to analyses when the leak current at holding potential was <5% of peak current at the test potential. Current traces were lowpass-filtered by utilizing the built-in analog four-pole Bessel filters of the amplifiers and were sampled at 20 kHz which is at least twice the filter cut-off frequency. A gravity-driven perfusion system was used to perfuse the cells with control and test solutions and excess fluid was removed continuously through vacuum suction. The extracellular solution (bath solution) contained 145 mM NaCl, 5.5 mM glucose, 5 mM KCl, 2.5 mM CaCl2, 1 mM MgCl2, and 10 mM HEPES, having pH of 7.35 and an osmolarity between 302 and 308 mOsM/L. Toxins were dissolved in bath solution at different molar concentrations and supplemented with 0.1 mg/mL of bovine serum albumin BSA (Sigma-Aldrich, Budapest, Hungary). The intracellular solution (pipette filling) was comprised of 140 mM KF, 2 mM MgCl2, 1 mM CaCl2, 10 mM HEPES, and 11 mM EGTA, with a pH of 7.22 and an osmolarity of ~295 mOsM/L.
(§4) Generally, to evoke the Kv1.xcurrents, 15-ms-long depolarization pulses to +50 mV from a holding potential of −120 mV were applied, and the current traces were recorded after every 15 s. However, in the case of Kv1.2, due to its variable activation kinetics, the duration of the depolarization pulse was set between 15 and 500 ms to attain the saturated peak current.

Kv1.3 = target: T2, Kv1.3 (Homo sapiens, UniProt P22001); assay: Whole-cell patch-clamp of Kv1.3 currents in PHA-activated human T lymphocytes; conditions: for Hill coefficient H, Kv1.3 block: Hill fit of isochronal RCF (4 ms)
T2 construct: endogenous in cells
Description: as §1
Isochronal RCF data points obtained this way (isochronal RCF = I4ms/I4ms,0 where I4ms,0 and I4ms are the currents at 4 ms time point in the absence and presence of CboK peptides, respectively) at different toxin concentrations were fitted with the Hill equation to obtain concentration–response curves as shown in Figure 6H.
Human peripheral venous blood was acquired from anonymous healthy volunteers from the blood bank. Blood samples were collected by having approval from the Ethical Committee of the Hungarian Medical Research Council (36255-6/2017/EKU). PBMCs were separated by Histopaque 1077 (Sigma-Aldrich, Budapest, Hungary) separation technique, and isolated cells, at the density of 5 × 10^5 cells, were cultured in RPMI 1640 media (Gibco, Grand Island, NY, USA) supplemented with 10% FBS (Sigma-Aldrich, Budapest, Hungary), 2 mM L-glutamine, […], and […] penicillin in a humidified incubator at 37 °C and 5% CO2 for 3–6 days. A measure of 2, 5, or 10 μg/mL of Phytohemagglutinin A (PHA) (Sigma-Aldrich, Budapest, Hungary) was added in cultured cells to activate the PBMCs and upregulate the Kv1.3 expression.
as §3, with “suction.” for “suction. The extracellular solution (bath solution) contained 145 mM NaCl, 5.5 mM glucose, 5 mM KCl, 2.5 mM CaCl2, 1 mM MgCl2, and 10 mM HEPES, having pH of 7.35 and an osmolarity between 302 and 308 mOsM/L. Toxins were dissolved in bath solution at different molar concentrations and supplemented with 0.1 mg/mL of bovine serum albumin BSA (Sigma-Aldrich, Budapest, Hungary). The intracellular solution (pipette filling) was comprised of 140 mM KF, 2 mM MgCl2, 1 mM CaCl2, 10 mM HEPES, and 11 mM EGTA, with a pH of 7.22 and an osmolarity of ~295 mOsM/L.”

hKv1.1 = target: T3, hKv1.1 (Homo sapiens, UniProt Q09470); assay: Whole-cell patch-clamp of Kv1.1 currents in transiently transfected CHO cells
T3 construct: host or cells: CHO cells, transient transfection (Lipofectamine 2000)
Description: as §1, §2, §3, §4

[1] = Hill fit of RCF vs toxin concentration, n ≥ 3

T2 sequence (P22001 whole entry): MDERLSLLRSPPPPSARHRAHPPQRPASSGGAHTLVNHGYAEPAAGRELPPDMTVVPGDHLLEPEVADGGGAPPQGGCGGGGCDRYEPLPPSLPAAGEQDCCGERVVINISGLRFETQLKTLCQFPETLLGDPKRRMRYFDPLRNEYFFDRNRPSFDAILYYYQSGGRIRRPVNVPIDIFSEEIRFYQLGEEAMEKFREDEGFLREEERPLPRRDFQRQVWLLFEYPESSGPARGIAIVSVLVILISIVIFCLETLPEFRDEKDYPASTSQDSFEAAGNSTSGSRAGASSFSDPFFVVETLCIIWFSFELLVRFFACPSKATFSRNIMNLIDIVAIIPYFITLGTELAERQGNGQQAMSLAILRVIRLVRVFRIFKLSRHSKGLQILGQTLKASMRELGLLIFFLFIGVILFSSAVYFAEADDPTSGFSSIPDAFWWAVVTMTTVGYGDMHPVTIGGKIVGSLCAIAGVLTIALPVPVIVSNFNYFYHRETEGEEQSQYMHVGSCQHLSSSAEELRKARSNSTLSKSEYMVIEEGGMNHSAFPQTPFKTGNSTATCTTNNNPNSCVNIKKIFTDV
T3 sequence (Q09470 whole entry): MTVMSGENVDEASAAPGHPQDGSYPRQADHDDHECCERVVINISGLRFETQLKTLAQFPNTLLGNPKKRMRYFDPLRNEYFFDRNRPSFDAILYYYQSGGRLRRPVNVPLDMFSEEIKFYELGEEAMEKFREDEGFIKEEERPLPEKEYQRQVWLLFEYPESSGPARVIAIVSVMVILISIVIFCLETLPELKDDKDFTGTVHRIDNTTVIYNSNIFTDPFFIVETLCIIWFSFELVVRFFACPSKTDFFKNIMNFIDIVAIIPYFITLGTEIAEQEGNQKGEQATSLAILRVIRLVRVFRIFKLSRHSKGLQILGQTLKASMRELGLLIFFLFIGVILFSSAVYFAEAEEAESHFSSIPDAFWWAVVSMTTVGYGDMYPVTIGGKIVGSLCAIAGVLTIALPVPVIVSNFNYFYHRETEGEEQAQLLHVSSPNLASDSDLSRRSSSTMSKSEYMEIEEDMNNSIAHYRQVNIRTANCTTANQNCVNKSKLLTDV
T1 sequence (P16389 whole entry): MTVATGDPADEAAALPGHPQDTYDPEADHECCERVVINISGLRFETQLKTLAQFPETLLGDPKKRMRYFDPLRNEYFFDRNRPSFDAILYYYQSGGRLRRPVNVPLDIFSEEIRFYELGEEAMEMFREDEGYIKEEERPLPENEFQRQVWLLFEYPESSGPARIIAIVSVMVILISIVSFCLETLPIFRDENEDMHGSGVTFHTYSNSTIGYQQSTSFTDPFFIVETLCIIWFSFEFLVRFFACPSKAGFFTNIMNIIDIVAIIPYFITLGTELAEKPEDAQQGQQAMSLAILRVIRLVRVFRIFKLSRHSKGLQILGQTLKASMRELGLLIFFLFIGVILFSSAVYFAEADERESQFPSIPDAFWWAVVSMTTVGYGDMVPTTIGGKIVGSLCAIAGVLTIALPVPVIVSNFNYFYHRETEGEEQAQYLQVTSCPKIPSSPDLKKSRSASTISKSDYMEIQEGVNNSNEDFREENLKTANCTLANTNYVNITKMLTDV

Compound: CC[C@H](C)[C@@H]1NC(=O)[C@@H]2CSSC[C@H](NC(=O)[C@H](C)NC(=O)[C@@H](NC(=O)[C@@H](N)CC(N)=O)C(C)C)C(=O)N[C@@H](C(C)C)C(=O)N[C@@H](Cc3c[nH]cn3)C(=O)N[C@@H](CCCNC(=N)N)C(=O)N[C@@H]([C@@H](C)O)C(=O)N[C@H]3CSSC[C@H](NC(=O)[C@H](CCCCN)NC(=O)[C@H](CCCNC(=N)N)NC(=O)[C@H](CC(N)=O)NC1=O)C(=O)N[C@@H](CC(N)=O)C(=O)N[C@H](C(=O)N[C@@H](Cc1ccc(O)cc1)C(=O)N1CCC[C@H]1C(=O)N[C@@H](Cc1c[nH]cn1)C(=O)O)CSSC[C@H](NC(=O)[C@H](CC(N)=O)NC(=O)[C@H](CO)NC(=O)[C@H](CC(=O)O)NC3=O)C(=O)N[C@@H](CCCCN)C(=O)N[C@@H](CCCNC(=N)N)C(=O)N[C@@H](CC(N)=O)C(=O)NCC(=O)N[C@@H](Cc1ccc(O)cc1)C(=O)N[C@@H](CCCCN)C(=O)N[C@@H](CO)C(=O)NCC(=O)N[C@@H](CCCCN)C(=O)N2 [CboK1] (H-NVACVHRTCDSNCKRNGYKSGKCINRKCNCYPH-OH; disulfide 4-23, 9-28, 13-30)
- effect on Kv1.2 currents (hKv1.2; 100 nM toxin): totally insensitive; also recorded: did not show any effect
- Kd (hKv1.2; this study, CboK1 tested at 100 nM, read-out: Kd Values Kv1.2 (symbol)): > 100 nM
- effect on Kv1.3 currents (Kv1.3; 100 nM toxin): did not show any effect
- inhibition of Kv1.3 currents (Kv1.3; 100 nM toxin, equilibrium block, screening summary (Figure 4F), n ≥ 3): less than 4%
- Kd (Kv1.3; this study, screened at 100 nM, read-out: Kd Values Kv1.3 (symbol)): > 100 nM
- effect on Kv1.1 currents (hKv1.1; 100 nM toxin): did not show any effect
- Kd (hKv1.1; this study, screened at 100 nM, read-out: Kd Values Kv1.1 (symbol)): > 100 nM

Compound: CC[C@H](C)[C@H](NC(=O)[C@H](Cc1ccccc1)NC(=O)[C@@H](N)[C@@H](C)O)C(=O)N[C@@H](CC(N)=O)C(=O)N[C@H](C(=O)N[C@@H](CCCCN)C(=O)N[C@H]1CSSC[C@@H]2NC(=O)[C@H](CCCCN)NC(=O)[C@H](CCC(=O)O)NC(=O)CNC(=O)[C@H](C)NC(=O)[C@H](Cc3c[nH]cn3)NC(=O)[C@@H]3CCCN3C(=O)CNC(=O)[C@H](Cc3ccc(O)cc3)NC(=O)[C@H](CC(C)C)NC(=O)[C@H](CC(=O)O)NC(=O)[C@H](CCCCN)NC(=O)[C@@H]3CSSC[C@@H](C(=O)N[C@@H](Cc4ccc(O)cc4)C(=O)N[C@@H](CCCCN)C(=O)N[C@H](C(=O)O)C(C)C)NC(=O)[C@H](CCCCN)NC(=O)[C@H](CSSC[C@H](NC(=O)[C@H](CCC(N)=O)NC(=O)[C@H](CCCCN)NC(=O)[C@@H]4CCCN4C(=O)[C@H](CO)NC(=O)[C@H]([C@@H](C)O)NC1=O)C(=O)N[C@@H](CC(C)C)C(=O)N[C@@H](CCCCN)C(=O)N1CCC[C@H]1C(=O)N3)NC(=O)[C@H](CCCCN)NC(=O)CNC(=O)[C@H](CC(N)=O)NC(=O)[C@H](CCSC)NC2=O)C(C)C [CboK7] (H-TFINVKCTSPKQCLKPCKDLYGPHAGEKCMNGKCKCYKV-OH; disulfide 7-29, 13-34, 17-36)
- Hill coefficient H, Kv1.2 block (hKv1.2; [1]): 1.3
- Hill coefficient H, Kv1.3 block (Kv1.3; n ≥ 3): 0.8

Compound: CC[C@H](C)[C@H](NC(=O)[C@H](Cc1ccccc1)NC(=O)[C@@H](N)[C@@H](C)O)C(=O)N[C@@H](CC(N)=O)C(=O)N[C@H](C(=O)N[C@@H](CCCCN)C(=O)N[C@H]1CSSC[C@@H]2NC(=O)[C@H](CCCCN)NC(=O)[C@H](CCC(=O)O)NC(=O)CNC(=O)[C@H](C)NC(=O)[C@H](Cc3c[nH]cn3)NC(=O)[C@@H]3CCCN3C(=O)CNC(=O)[C@H](Cc3ccc(O)cc3)NC(=O)[C@H](CC(C)C)NC(=O)[C@H](CC(=O)O)NC(=O)[C@H](CCCCN)NC(=O)[C@@H]3CSSC[C@@H](C(=O)N[C@@H](Cc4ccc(O)cc4)C(=O)N[C@@H](CCCCN)C(=O)N4CCC[C@H]4C(=O)O)NC(=O)[C@H](CCCCN)NC(=O)[C@H](CSSC[C@H](NC(=O)[C@H](CCC(N)=O)NC(=O)[C@H](CCCCN)NC(=O)[C@@H]4CCCN4C(=O)[C@H](CO)NC(=O)[C@H]([C@@H](C)O)NC1=O)C(=O)N[C@@H](CC(C)C)C(=O)N[C@@H](CCCCN)C(=O)N1CCC[C@H]1C(=O)N3)NC(=O)[C@H](CCCCN)NC(=O)CNC(=O)[C@H](CC(N)=O)NC(=O)[C@H](CCSC)NC2=O)C(C)C [CboK4] (H-TFINVKCTSPKQCLKPCKDLYGPHAGEKCMNGKCKCYKP-OH; disulfide 7-29, 13-34, 17-36 (inferred); N-terminus and C-terminus assumed)
- Kd (hKv1.2; Hill fit of RCF vs toxin concentration, cumulative application, equilibrium block, pulses to +50 mV from -120 mV, n ≥ 3, read-out: Kd for Kv1.2): 0.125 nM
- Hill coefficient H, Kv1.2 block (hKv1.2; [1]): 1.0
- Hill coefficient H, Kv1.3 block (Kv1.3; n ≥ 3): 0.94
- Kd (Kv1.3; Hill fit of isochronal RCF (current at 4 ms), 15-ms pulses to +50 mV from -120 mV, n ≥ 3, read-out: Kd for Kv1.3): 21.7 nM
- inhibition of Kv1.1 currents (hKv1.1; 100 nM toxin, equilibrium block, screening summary (Figure 4D), n ≥ 3): less than 10%

Compound: CC[C@H](C)[C@H](NC(=O)[C@@H](N)[C@@H](C)O)C(=O)N[C@H](C(=O)N[C@@H](CC(N)=O)C(=O)N[C@H](C(=O)N[C@@H](CCCCN)C(=O)N[C@H]1CSSC[C@@H]2NC(=O)[C@H](CCCCN)NC(=O)[C@H](CCC(=O)O)NC(=O)CNC(=O)[C@H](C)NC(=O)[C@H](Cc3c[nH]cn3)NC(=O)[C@@H]3CCCN3C(=O)CNC(=O)[C@H](Cc3ccc(O)cc3)NC(=O)[C@H](CC(C)C)NC(=O)[C@H](CC(=O)O)NC(=O)[C@H](CCCCN)NC(=O)[C@@H]3CSSC[C@@H](C(=O)N[C@@H](Cc4ccc(O)cc4)C(=O)N[C@@H](CCCCN)C(=O)N[C@H](C(=O)O)C(C)C)NC(=O)[C@H](CCCCN)NC(=O)[C@H](CSSC[C@H](NC(=O)[C@H](CCC(N)=O)NC(=O)[C@H](CCCCN)NC(=O)[C@@H]4CCCN4C(=O)[C@H](CO)NC(=O)[C@H]([C@@H](C)O)NC1=O)C(=O)N[C@@H](CC(C)C)C(=O)N[C@@H](CCCCN)C(=O)N1CCC[C@H]1C(=O)N3)NC(=O)[C@H](CCCCN)NC(=O)CNC(=O)[C@H](CC(N)=O)NC(=O)[C@H](CCSC)NC2=O)C(C)C)[C@@H](C)CC [CboK3] (H-TIINVKCTSPKQCLKPCKDLYGPHAGEKCMNGKCKCYKV-OH; disulfide 7-29, 13-34, 17-36)
- Hill coefficient H, Kv1.2 block (hKv1.2; [1]): 1.2
- time for onset of steady-state block and complete recovery, Kv1.3 (Kv1.3; 5, 15, 40, 100, 350 nM toxin): ~ 1 min
- Hill coefficient H, Kv1.3 block (Kv1.3; n ≥ 3): 0.96
- reversibility of Kv1.3 block (Kv1.3; wash with toxin-free external solution): fully reversible
